Marks after values point to notes of the source that are not given here.
Tested on: male rats
Assay: Plasma metabolite profiling (GC-MS, LC-MS, SPE-LC-MS) in male rats dosed once daily over 28 days (OECD 407)
Type: in vivo, rat
Conditions: high dose; for Glycochenodeoxycholic acid / Mannose: Table 15c; for Alanine, ratio versus control / Androstenedione, ratio versus control / Glycine, ratio versus control / Heptadecanoic acid (C17:0), ratio versus control / Testosterone, ratio versus control / Threonine, ratio versus control / Uric acid, ratio versus control / alpha-Tocopherol, ratio versus control / Cholesterol, ratio versus control: male rats, plasma
In short: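 Metabolites were measured by GC-MS (derivatised) and reversed-phase LC-MS, with steroids by online SPE-LC-MS, in plasma drawn from fasted rats on days 7, 14 and 28 of once-daily dosing (5/sex/group). Values are ratios versus sex-matched untreated controls, normalized to pool samples, with Welch-test p-values.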

C[C@@H]1CC2=CC(=O)CC[C@@H]2[C@H]2CC[C@@]3(C)[C@@H](CC[C@]3(C)O)[C@@H]21 [Mibolerone]
Glycochenodeoxycholic acid (m7, male rats): 1.31
Mannose (m7, male rats): 1.41 *
3,4-Dihydroxyphenylacetic acid (DOPAC) (m7, male rats, Table 15d): 0.83 *
18-Hydroxy-11-deoxycorticosterone (m7, male rats, Table 15d): 0.83 *
Glycerol phosphate, lipid fraction (m7, male rats, Table 15d): 0.08 *
Homovanillic acid (HVA) (m7, male rats, Table 15d): 0.5 *
Kynurenic acid (m7, male rats, Table 15d): 0.73 *
Lysophosphatidylcholine (C18:1) (m7, male rats, Table 15d): 0.53 *
Lysophosphatidylethanolamine (C22:5) (m7, male rats, Table 15d): 0.54 *
Phosphate, lipid fraction (m7, male rats, Table 15d): 0.32 *
Phosphatidylcholine (C18:0,C18:1) (m7, male rats, Table 15d): 0.19 *
Sphingomyelin (d18:1, C16:0) (m7, male rats, Table 15d): 0.12 *
Sphingomyelin (d18:1,C23:0) (m7, male rats, Table 15d): 0.07 *
Sphingomyelin (d18:1,C24:0) (m7, male rats, Table 15d): 0.1 *
Sphingomyelin (d18:2,C18:0) (m7, male rats, Table 15d): 0.17 *
TAG No 02 (m7, male rats, Table 15d): 0.34 *
Taurocholic acid (m7, male rats, Table 15d): 1.11
myo-Inositol, lipid fraction (m7, male rats, Table 15d): 0.08 *
Glycochenodeoxycholic acid (m14, male rats): 2.14 *
Mannose (m14, male rats): 1.08 *
3,4-Dihydroxyphenylacetic acid (DOPAC) (m14, male rats, Table 15d): 0.96
18-Hydroxy-11-deoxycorticosterone (m14, male rats, Table 15d): 0.93
Glycerol phosphate, lipid fraction (m14, male rats, Table 15d): 0.35 *
Homovanillic acid (HVA) (m14, male rats, Table 15d): 0.69 *
Kynurenic acid (m14, male rats, Table 15d): 0.5
Lysophosphatidylcholine (C18:1) (m14, male rats, Table 15d): 0.81 *
Lysophosphatidylethanolamine (C22:5) (m14, male rats, Table 15d): 0.87
Phosphate, lipid fraction (m14, male rats, Table 15d): 0.62 *
Phosphatidylcholine (C18:0,C18:1) (m14, male rats, Table 15d): 0.61 *
Sphingomyelin (d18:1, C16:0) (m14, male rats, Table 15d): 0.37 *
Sphingomyelin (d18:1,C23:0) (m14, male rats, Table 15d): 0.53 *
Sphingomyelin (d18:1,C24:0) (m14, male rats, Table 15d): 0.63 *
Sphingomyelin (d18:2,C18:0) (m14, male rats, Table 15d): 0.3 *
TAG No 02 (m14, male rats, Table 15d): 0.24 *
Taurocholic acid (m14, male rats, Table 15d): 0.62 *
myo-Inositol, lipid fraction (m14, male rats, Table 15d): 0.29 *
Glycochenodeoxycholic acid (m28, male rats): 5.73 *
Mannose (m28, male rats): 1.07 *
3,4-Dihydroxyphenylacetic acid (DOPAC) (m28, male rats, Table 15d): 0.79 *
18-Hydroxy-11-deoxycorticosterone (m28, male rats, Table 15d): 0.63 *
Glycerol phosphate, lipid fraction (m28, male rats, Table 15d): 0.7
Homovanillic acid (HVA) (m28, male rats, Table 15d): 0.6 *
Kynurenic acid (m28, male rats, Table 15d): 0.54 *
Lysophosphatidylcholine (C18:1) (m28, male rats, Table 15d): 0.91 *
Lysophosphatidylethanolamine (C22:5) (m28, male rats, Table 15d): 0.85 *
Phosphate, lipid fraction (m28, male rats, Table 15d): 0.81 *
Phosphatidylcholine (C18:0,C18:1) (m28, male rats, Table 15d): 1.1
Sphingomyelin (d18:1, C16:0) (m28, male rats, Table 15d): 0.51 *
Sphingomyelin (d18:1,C23:0) (m28, male rats, Table 15d): 1.09
Sphingomyelin (d18:1,C24:0) (m28, male rats, Table 15d): 1.01
Sphingomyelin (d18:2,C18:0) (m28, male rats, Table 15d): 0.33 *
TAG No 02 (m28, male rats, Table 15d): 0.23 *
Taurocholic acid (m28, male rats, Table 15d): 0.75 *
myo-Inositol, lipid fraction (m28, male rats, Table 15d): 0.5 *
Alanine, ratio versus control (day 7): 0.72 *
Androstenedione, ratio versus control (day 7): 0.05 *
Glycine, ratio versus control (day 7): 0.86 *
Heptadecanoic acid (C17:0), ratio versus control (day 7): 0.37 *
Testosterone, ratio versus control (day 7): 0.07 *
Threonine, ratio versus control (day 7): 0.76 *
Uric acid, ratio versus control (day 7): 0.66 *
alpha-Tocopherol, ratio versus control (day 7): 0.07 *
Alanine, ratio versus control (day 14): 0.93 *
Androstenedione, ratio versus control (day 14): 0.96^
Cholesterol, ratio versus control (day 14): 0.27 *
Glycine, ratio versus control (day 14): 0.86^
Heptadecanoic acid (C17:0), ratio versus control (day 14): 0.57 *
Testosterone, ratio versus control (day 14): 0.68 *
Threonine, ratio versus control (day 14): 1.02^
Uric acid, ratio versus control (day 14): 0.7 *
alpha-Tocopherol, ratio versus control (day 14): 0.33 *
Alanine, ratio versus control (day 28): 1.14^
Androstenedione, ratio versus control (day 28): 0.46 *
Cholesterol, ratio versus control (day 28): 0.52 *
Glycine, ratio versus control (day 28): 0.72 *
Heptadecanoic acid (C17:0), ratio versus control (day 28): 0.82 *
Testosterone, ratio versus control (day 28): 0.26 *
Threonine, ratio versus control (day 28): 1.04^
Uric acid, ratio versus control (day 28): 0.5 *
alpha-Tocopherol, ratio versus control (day 28): 0.64 *

C[C@]12C=CC3=C4CCC(=O)C=C4CCC3C1CC[C@@H]2O (some centres unmarked) [Trenbolone]
Mannose (m7, male rats): 1.35 *
3,4-Dihydroxyphenylacetic acid (DOPAC) (m7, male rats, Table 16): 1.08
3,4-Dihydroxyphenylglycol (DOPEG) (m7, male rats, Table 16): 1.12
Androstenedione (m7, male rats, Table 16): 0.09 *
Citrate (m7, male rats, Table 16): 0.89 *
Glycerol, polar fraction (m7, male rats, Table 16): 0.66 *
Histamine (m7, male rats, Table 16): 1.35
Ketoleucine (m7, male rats, Table 16): 0.93
Lactate (m7, male rats, Table 16): 0.68 *
Metanephrine (m7, male rats, Table 16): 0.86
Pantothenic acid (m7, male rats, Table 16): 0.65 *
Phosphatidylcholine (C18:1,C18:2) (m7, male rats, Table 16): 0.76 *
Phosphatidylcholine No 04 (m7, male rats, Table 16): 0.44 *
TAG (C18:1,C18:2) (m7, male rats, Table 16): 0.77 *
Testosterone (m7, male rats, Table 16): 0.1 *
Tyrosine (m7, male rats, Table 16): 0.93 *
3,4-Dihydroxyphenylacetic acid (DOPAC) (m7, male rats, Table 15d): 1.08
18-Hydroxy-11-deoxycorticosterone (m7, male rats, Table 15d): 0.4
Glycerol phosphate, lipid fraction (m7, male rats, Table 15d): 0.26 *
Homovanillic acid (HVA) (m7, male rats, Table 15d): 0.6 *
Kynurenic acid (m7, male rats, Table 15d): 0.66 *
Lysophosphatidylcholine (C18:1) (m7, male rats, Table 15d): 0.89 *
Lysophosphatidylethanolamine (C22:5) (m7, male rats, Table 15d): 0.75 *
Phosphate, lipid fraction (m7, male rats, Table 15d): 0.47 *
Phosphatidylcholine (C18:0,C18:1) (m7, male rats, Table 15d): 0.62 *
Sphingomyelin (d18:1, C16:0) (m7, male rats, Table 15d): 0.23 *
Sphingomyelin (d18:1,C23:0) (m7, male rats, Table 15d): 0.25 *
Sphingomyelin (d18:1,C24:0) (m7, male rats, Table 15d): 0.37 *
Sphingomyelin (d18:2,C18:0) (m7, male rats, Table 15d): 0.24 *
TAG No 02 (m7, male rats, Table 15d): 0.57 *
myo-Inositol, lipid fraction (m7, male rats, Table 15d): 0.24 *
Cholesterol (m7, Table 14b): 0.22
Choline plasmalogen No 02 (m7, Table 14b): 0.44
Lignoceric acid (C24:0) (m7, Table 14b): 0.14
Sphingomyelin (d18:1, C16:0) (m7, Table 14b): 0.23
Sphingomyelin (d18:2, C16:0) (m7, Table 14b): 0.22
erythro-Sphingosine (d18:1) (m7, Table 14b): 0.1
Mannose (m14, male rats): 1.4 *
3,4-Dihydroxyphenylacetic acid (DOPAC) (m14, male rats, Table 16): 0.75 *
3,4-Dihydroxyphenylglycol (DOPEG) (m14, male rats, Table 16): 0.86 *
Androstenedione (m14, male rats, Table 16): 0.02 *
Citrate (m14, male rats, Table 16): 0.89 *
Glycerol, polar fraction (m14, male rats, Table 16): 0.51 *
Histamine (m14, male rats, Table 16): 1.6
Ketoleucine (m14, male rats, Table 16): 0.85 *
Lactate (m14, male rats, Table 16): 0.94
Metanephrine (m14, male rats, Table 16): 0.48 *
Pantothenic acid (m14, male rats, Table 16): 0.82 *
Phosphatidylcholine (C18:1,C18:2) (m14, male rats, Table 16): 0.74 *
Phosphatidylcholine No 04 (m14, male rats, Table 16): 0.42 *
TAG (C18:1,C18:2) (m14, male rats, Table 16): 0.45 *
Testosterone (m14, male rats, Table 16): 0.06 *
Tyrosine (m14, male rats, Table 16): 1
3,4-Dihydroxyphenylacetic acid (DOPAC) (m14, male rats, Table 15d): 0.75 *
18-Hydroxy-11-deoxycorticosterone (m14, male rats, Table 15d): 0.47 *
Glycerol phosphate, lipid fraction (m14, male rats, Table 15d): 0.24 *
Homovanillic acid (HVA) (m14, male rats, Table 15d): 0.5 *
Kynurenic acid (m14, male rats, Table 15d): 0.8 *
Lysophosphatidylcholine (C18:1) (m14, male rats, Table 15d): 0.82 *
Lysophosphatidylethanolamine (C22:5) (m14, male rats, Table 15d): 0.83 *
Phosphate, lipid fraction (m14, male rats, Table 15d): 0.44 *
Phosphatidylcholine (C18:0,C18:1) (m14, male rats, Table 15d): 0.63 *
Sphingomyelin (d18:1, C16:0) (m14, male rats, Table 15d): 0.22 *
Sphingomyelin (d18:1,C23:0) (m14, male rats, Table 15d): 0.33 *
Sphingomyelin (d18:1,C24:0) (m14, male rats, Table 15d): 0.41 *
Sphingomyelin (d18:2,C18:0) (m14, male rats, Table 15d): 0.26 *
TAG No 02 (m14, male rats, Table 15d): 0.74 *
myo-Inositol, lipid fraction (m14, male rats, Table 15d): 0.29 *
Cholesterol (m14, Table 14b): 0.22
Choline plasmalogen No 02 (m14, Table 14b): 0.52
Lignoceric acid (C24:0) (m14, Table 14b): 0.17
Sphingomyelin (d18:1, C16:0) (m14, Table 14b): 0.22
Sphingomyelin (d18:2, C16:0) (m14, Table 14b): 0.18
erythro-Sphingosine (d18:1) (m14, Table 14b): 0.06
Mannose (m28, male rats): 1.31 *
3,4-Dihydroxyphenylacetic acid (DOPAC) (m28, male rats, Table 16): 0.54 *
3,4-Dihydroxyphenylglycol (DOPEG) (m28, male rats, Table 16): 0.72 *
Androstenedione (m28, male rats, Table 16): 0.02 *
Citrate (m28, male rats, Table 16): 1.03
Glycerol, polar fraction (m28, male rats, Table 16): 0.61 *
Histamine (m28, male rats, Table 16): 0.65 *
Ketoleucine (m28, male rats, Table 16): 0.72 *
Lactate (m28, male rats, Table 16): 0.76 *
Metanephrine (m28, male rats, Table 16): 0.66 *
Pantothenic acid (m28, male rats, Table 16): 0.77 *
Phosphatidylcholine (C18:1,C18:2) (m28, male rats, Table 16): 0.96
Phosphatidylcholine No 04 (m28, male rats, Table 16): 0.81 *
TAG (C18:1,C18:2) (m28, male rats, Table 16): 1.26
Testosterone (m28, male rats, Table 16): 0.06 *
Tyrosine (m28, male rats, Table 16): 0.82 *
3,4-Dihydroxyphenylacetic acid (DOPAC) (m28, male rats, Table 15d): 0.54 *
18-Hydroxy-11-deoxycorticosterone (m28, male rats, Table 15d): 0.52 *
Glycerol phosphate, lipid fraction (m28, male rats, Table 15d): 0.61 *
Homovanillic acid (HVA) (m28, male rats, Table 15d): 0.49 *
Kynurenic acid (m28, male rats, Table 15d): 0.72 *
Lysophosphatidylcholine (C18:1) (m28, male rats, Table 15d): 0.92
Lysophosphatidylethanolamine (C22:5) (m28, male rats, Table 15d): 0.8
Phosphate, lipid fraction (m28, male rats, Table 15d): 0.66 *
Phosphatidylcholine (C18:0,C18:1) (m28, male rats, Table 15d): 0.87
Sphingomyelin (d18:1, C16:0) (m28, male rats, Table 15d): 0.35 *
Sphingomyelin (d18:1,C23:0) (m28, male rats, Table 15d): 0.55 *
Sphingomyelin (d18:1,C24:0) (m28, male rats, Table 15d): 0.54 *
Sphingomyelin (d18:2,C18:0) (m28, male rats, Table 15d): 0.35 *
TAG No 02 (m28, male rats, Table 15d): 0.51 *
myo-Inositol, lipid fraction (m28, male rats, Table 15d): 0.54 *
Cholesterol (m28, Table 14b): 0.4
Choline plasmalogen No 02 (m28, Table 14b): 0.55
Lignoceric acid (C24:0) (m28, Table 14b): 0.35
Sphingomyelin (d18:1, C16:0) (m28, Table 14b): 0.35
Sphingomyelin (d18:2, C16:0) (m28, Table 14b): 0.28
erythro-Sphingosine (d18:1) (m28, Table 14b): 0.21

Reference: patent US20150010928A1, “MEANS AND METHODS FOR ASSESSING AN ENDOCRINE DISEASE OR DISORDER” (priority 2012, published 2015)
